This is an account of results in a melting point compilation (Tetko et al.; mined from patent text by program, amines drawn as free bases though some values may be those of a salt).

Each structure is given as a SMILES string.

Turning to `Cc1cc2c(c(C)c1NC(=O)CC(C)(C)C)C(=O)C(C)(C)O2`, the melting point was in the range of 181 to 182 °C.

For `CCOC(=O)c1cn(C2CC2)c2nc(Sc3ccc(C)cc3)c(F)cc2c1=O`, the melting point was 186 to 187 °C.

Consider `CCOC(=O)c1nc2ncnc(NCc3ccccc3)c2[nH]1`, for which the melting point fell in the range of 181 to 185 °C.

On to `COc1cc2ncc(C#N)c(Nc3ccc(C)cc3O)c2cc1OC`, for which the melting point was greater than 250 °C.

For the compound `O=C(NC1(C2CC2)CC1)c1c(NC(=O)c2cc(C(F)(F)F)nn2-c2ncccc2Cl)c(Br)cc2cn[nH]c12`, the melting point lay within 212 to 214 °C.

As for `Cn1cc(C#N)n(-c2ccc(Cl)cc2)c1=O`, the melting point lay within 149 to 151 °C.

In the case of `COc1ccc(CCc2cc3c(s2)NC(=S)CN=C3c2ccccc2Cl)cc1`, the melting point lay in the range of 185 to 186 °C.

On to `CC(=O)Oc1ccc(Cn2c(-c3ccccc3)nc(Cl)c2CC(=O)O)cc1C`, for which the melting point is 200 to 203 °C.

In turn, `CCOC(=O)c1c(C)nc(N2CCCCC2)c2nnn(CC)c12` registered a melting point of 45 to 47 °C.

Compound `Cn1cc(-c2cc(-c3ccc4[nH]ccc4c3)ccn2)n(-c2ccc(C(C)(C)C#N)cc2)c1=O` showed a melting point of 238 °C.

Take `CN1CCC(c2ccc(N(C)C)cc2)(C(C)(C)O)CC1`: the melting point was in the range of 142 to 143 °C.

`CCCn1nc(C(=O)c2cccc(O)c2)c2cccc(C(F)(F)F)c21` showed a melting point of 118 °C.

For `COc1ccc2c(c1)C(=O)N(c1ccc3c(c1)CCCN3C)C2`, the melting point lay in the range of 123 to 127 °C.

In turn, `CCCN(C)S(=O)(=O)c1cc(-n2c(=O)cc(C(F)(F)F)n(C)c2=O)ccc1Cl` displayed a melting point of 144 to 145 °C.

Turning to `COC(=O)c1ccc(CNC(C)=O)cc1S(N)(=O)=O`, the melting point lay in the range of 173 to 175 °C.

With `Cc1nn(CCO)c(C)c1Sc1cc(Cl)cc(Cl)c1`, the melting point is 118 to 120 °C.

In turn, `O=C1c2ccccc2C(=O)N1CCOc1ccc([N+](=O)[O-])cc1` came in with a melting point of 151 to 153 °C.

In turn, `CCCCN(CCCC)S(=O)(=O)c1ccc(Cl)c([N+](=O)[O-])c1` displayed a melting point of 67 to 68 °C.

For `CCON=C(c1ccccc1COc1cc(C)ccc1C)c1ccnn1C`, the melting point fell in the range of 74 to 76 °C.

For `O=C(Nc1ccccc1)c1ccc2c(c1)S(=O)(=O)N=CN2C1CC1`, the melting point was 293 to 296 °C.

Regarding `COc1ccc(NC(=O)C=NO)cc1C`, the melting point fell in the range of 163 to 165 °C.

The compound `N#Cc1ccc(-c2csc(N3C(=O)OCC34CC4)n2)cc1` registered a melting point of 219 to 221 °C.

For `O=C1C2=C(CCCC2)C(=O)N1c1ccc(Cl)c(O)c1`, the melting point was in the range of 236 to 238 °C.

With `COc1c(C)c2c(c(NS(C)(=O)=O)c1C/C=C(\C)CCC(=O)O)C(=O)OC2`, the melting point lay in the range of 170 to 176 °C.

For the compound `CC(O[Si](C)(C)C(C)(C)C)C1C(=O)NC1C1CCCC(OCCCl)C1O` (stereo not drawn), the melting point was 97 to 100 °C.

Take `CC(=O)c1ccc(OCc2ccccc2)c(CCCc2ccccc2)c1O`: the melting point was in the range of 115 to 116 °C.

Consider `CN1CCN(C[C@H]2C(=O)Nc3ccccc3S[C@H]2c2ccccc2)CC1` (relative stereo), for which the melting point was 198 °C.

For `CS(=O)(=O)c1ccc(-c2cnn(-c3ccc(F)c(F)c3)c(=O)c2Cc2ccc(F)cc2)cc1`, the melting point fell in the range of 157 to 159 °C.

As to `CCC(=O)NC[C@@H]1C[C@H]1c1c(F)ccc2nn(C)cc12` (relative stereo), the melting point lay within 158 to 159 °C.

`O=C(NCCO)c1cccc(-c2ccc3c(c2)N(Cc2cc(Cl)ccc2Cl)CC3)c1` yielded a melting point of 149 to 150 °C.

`O=C1CCCC(=O)C1C(=O)c1ccc(OC(F)F)cc1Cl`: the melting point is 68 to 72 °C.

Turning to `N#Cc1ccc(C(=O)N2CCc3cc(S(=O)(=O)N4CC(c5ccccc5)NC4=O)ccc32)cc1` (stereo not drawn), the melting point was 241 to 243 °C.

In turn, `COc1ccc(N2CCOCC2)c2sc(C(=O)NCC(=O)Cc3cccs3)nc12` displayed a melting point of 165 °C.

Compound `O=C(O)c1cc(Cc2c[nH]cn2)ccc1O` returned a melting point of 254 to 258 °C.

For `CCCCOCCOc1ccc(-c2ccc3c(c2)C=C(C(=O)Nc2ccc(S(=O)CCc4nncn4CCC)cc2)CCN3CCC)cc1` (stereo not drawn), the melting point is 93 to 101 °C.

On to `CCC(=O)Nc1ccnn1-c1c(Cl)cc(Cl)cc1Cl`, for which the melting point is 125 °C.

`O=C(O)CON=Cc1ccc(Cl)cc1` had a melting point of 121 to 123 °C.

The compound `N#CC(C#N)=C1Sc2nc3cc(Cl)c([N+](=O)[O-])cc3nc2S1` gave a melting point of 297 to 299 °C.

The compound `CC12CC(N3CCOCC3)C(O)CC1CCC1C2CCC2(C)C(O)C(N3CCCC3)CC12` (stereo not drawn) gave a melting point of 226 °C.

As for `CC(COc1ccccc1C1NC(C(=O)O)CS1)O[N+](=O)[O-]` (stereo not drawn), the melting point lay in the range of 127 to 130 °C.

Compound `Nc1nnc(-c2ccc(Cl)c(C(F)(F)F)c2)c(N)n1` had a melting point of 228 to 229 °C.

Consider `O=P(Cc1ccc2ccccc2c1-c1c(CP(=O)(c2cccc(F)c2)c2cccc(F)c2)ccc2ccccc12)(c1cccc(F)c1)c1cccc(F)c1`, for which the melting point lay within 280 to 284 °C.

Compound `COC(=O)C1=C(C)NC(C#N)=C(C(=O)OC)C1c1cccc([N+](=O)[O-])c1` (stereo not drawn) came in with a melting point of 206 to 207 °C.

Regarding `CN1CCN(C2=Nc3cc(C(F)(F)F)ccc3Nc3nn(C)nc32)CC1`, the melting point fell in the range of 109 to 111 °C.

The compound `CCc1nc2cc(C(=O)NC)c(Cl)cc2n1-c1ccc(CCNC(=O)NS(=O)(=O)c2ccc(C)cc2)cc1` gave a melting point of 122 to 135 °C.

In turn, `CC(C)(C)c1nc(C(=O)O)c(Cl)c(N)c1F` yielded a melting point of 149 to 151 °C.

Take `COC(=O)N1c2ccccc2Sc2nccnc21`: the melting point is 137 to 138 °C.

As for `O=[N+]([O-])c1cccc(-c2nnc(Nc3cccc(Br)c3)s2)c1`, the melting point lay within 228 to 231 °C.

Compound `Clc1cc(Cl)n2c(-c3ccccc3)nc(Cl)c2n1` showed a melting point of 133 to 134 °C.

Turning to `CC1C(=O)OC2=C(CSc3ccccc32)C1=O` (stereo not drawn), the melting point lay within 275 to 277 °C.

`CCc1c(CNS(=O)(=O)Cc2cccc(C(F)(F)F)c2)nn(-c2ccc(Cl)cc2Cl)c1-c1ccc(Br)cc1` yielded a melting point of 108 °C.

`O=C1Nc2cc(NC(=O)c3cccn(-c4ccccc4)c3=O)ccc2/C1=C/c1ccc[nH]1` gave a melting point greater than 300 °C.

`CCOC(=O)C(CCCCCCCCCCCCC(C(=O)O)C1CC1)C1CC1` (stereo not drawn) displayed a melting point of 36.9 to 38.2 °C.

Turning to `O=c1[nH]c2cnc(-c3ccccc3)nc2n1Cc1ccccc1`, the melting point lay within 286 to 287 °C.

`N#Cc1cncc(I)c1O` displayed a melting point greater than 245 °C.

In turn, `Cc1ccc(C2CCCN2S(=O)(=O)c2ccc(C)cc2)cc1` (racemic) had a melting point of 124 °C.

As to `CC(Oc1cc(Cl)ccc1Br)C(=O)N(C)C` (stereo not drawn), the melting point was in the range of 76 to 77 °C.

Take `Nc1nc2cc(C(=O)c3ccccc3)ccc2n1CCC(=O)O`: the melting point fell in the range of 325 to 330 °C.

As to `CC(C(=O)O)c1ccc(C=C2CCCCC2=O)cc1` (stereo not drawn), the melting point is 108 to 110 °C.

The compound `O=c1cc(-c2ccccc2)c2ccc(COc3cc(F)cc(-c4ccccc4)c3)cc2o1` registered a melting point of 129 to 131 °C.

Compound `Cc1ccc(Oc2cccc(C3C4=C(CC(C)(C)CC4=O)NC4=C3C(=O)CC(C)(C)C4)c2)cc1` registered a melting point of 202 to 203 °C.

On to `CC(C)(C)n1nnc(-c2ccc(CCC(=O)O)cc2)n1`, for which the melting point lay in the range of 88 to 90 °C.

In turn, `O=C1c2cccc3cccc(c23)N1CCCl` gave a melting point of 136 °C.

In the case of `CC(C)c1ccnc(C(=O)c2[nH]c3cc(Cl)ccc3c2CC(=O)O)c1`, the melting point is 194 to 196 °C.

With `N#CC(F)(F)C(F)(F)C(F)(F)C(F)(F)C#N`, the melting point amounted to 132 °C.

As to `O=C1C(=O)c2ccccc2C2=C1SCC1(CCN(C(=O)c3cn4c5c(cccc35)CCC4)CC1)O2`, the melting point is 265 to 267 °C.

Consider `O=C(Nc1ccc(-n2nc(C(F)(F)F)cc2Br)cc1)c1cccc(F)c1F`, for which the melting point lay in the range of 109 to 112 °C.

`C=Cc1cc(C(C)(C)C)c(O)c(C(C)(C)C)c1` returned a melting point of 36 to 39 °C.

Turning to `c1ccc(-c2ccc3nc4c(nc3c2)-c2cccc3cccc-4c23)cc1`, the melting point lay within 194 to 195 °C.

As to `CNc1cc(F)ccc1C(=O)OC`, the melting point was in the range of 39 to 39.5 °C.

The compound `[N-]=[N+]=Nc1ccc(-c2ccc(-c3nc(N)nc(N)n3)cc2)cc1` had a melting point of 230 °C.

For `Cc1cc(C(=O)O)c2cccc(OCc3ccccc3)c2n1`, the melting point came out at 241 °C.

Regarding `COc1cccc(-n2c3c(c(=O)c4cccnc42)CC(CBr)O3)c1` (stereo not drawn), the melting point was in the range of 196 to 198 °C.

Compound `CCOC(=O)c1cnn2c(-c3ccncc3)ccnc12` showed a melting point of 209 to 210 °C.

On to `Cc1[nH]c(=S)n(Nc2cccc(Cl)c2)c1C`, for which the melting point turned out to be 234 °C.

Turning to `Cc1ccc(-c2c(C(=O)Nc3nccs3)nc(-c3cccc4ccccc34)n2C)cc1`, the melting point lay in the range of 251 to 252 °C.

In the case of `Cc1ccc(NC(=N)c2ccccn2)cc1C`, the melting point fell in the range of 105 to 107 °C.

`C=CCc1c(-c2ccc(C#N)cc2)[nH]c2cc(C#N)ccc12` registered a melting point of 217 to 221 °C.

With `O=C1c2c(Cl)cccc2-n2cnc(-c3noc(CN(Cc4ccccc4)Cc4ccccc4)n3)c2[C@@H]2CCCN12`, the melting point was in the range of 107 to 109 °C.

On to `Cc1c(Br)c2c(c(C)c1NC(=O)OC(C)(C)C)CC(C)(C)O2`, for which the melting point was 115 to 117 °C.

The compound `Cc1cccc2nc3sc(Cl)cn3c(=O)c12` displayed a melting point of 162 to 166 °C.

The compound `CC(=O)N1CCN(c2nc(N)ncc2Oc2ccc(Cl)cc2)CC1` registered a melting point of 153 to 157 °C.

`CCOC(=O)Oc1ccc(C=CC(=O)N2CCN(CC(=O)N3CCCC3)CC2)cc1` had a melting point of 128 to 130 °C.

In turn, `O=C(Nc1ccccc1)C12CC3CC(CC(C3)C1)C2` displayed a melting point of 196 to 199 °C.

`CN1CCN(c2ncnc3c(N)cccc23)C1=O`: the melting point lay within 187 to 189 °C.

Take `COC(=O)c1cccc(CC2COc3ccc(OCc4nc5cc(F)ccc5s4)cc3C2O)c1` (stereo not drawn): the melting point was 171 to 173 °C.

The compound `O=C(Nc1c[nH]nc1C(=O)NCCNc1ccccn1)c1ccccn1` had a melting point of 260 to 262 °C.

In the case of `O=CCCc1cnc(-c2ccccc2)s1`, the melting point amounted to 192 °C.
